The values below come from US20150182525A1, “4-Amino-5-Fluoro-3-[6-(4-Methylpiperazin-1-YL)-1H-Benzimidazol-2-YL]-1H-Quinolin-2-one for use in the Treatment of Adenoid Cystic Carcinoma” (priority 2011, published 2015).

“Also recorded” adds a separate entry of the source.

For assay [1], the system named is Stage IV adenoid cystic carcinoma. Kind of assay: Dovitinib clinical trial, adenoid cystic carcinoma patient, radiologic imaging of target lesions. The class given is in vivo, human. As to the method:
A patient with Stage IV adenoid cystic carcinoma was enrolled in a dovitinib clinical trial.
The patient was originally diagnosed 20 years ago with Stage II well differentiated ACC on the right cheek mucosa. Patient was previously treated using tumor resection of right cheek mucosa and right upper jaw and treated with radiation therapy, followed by chemotherapy with 5 FU (250 mg/m^2), ciplatin (40 mg/m^2), doxorubicin (20 or 27 mg/m^2) and cyclophosphamide (400 mg/m^2).
Recurrence of ACC occurred […], and patient was again treated using surgery of right cheek and submandibular Lymph nodes. Patient was subsequently treated with radiation therapy and followed by chemotherapy (TS-1, 120 mg/day).
Patient was enrolled into the dovitinib clinical trial and was treated with dovitinb 500 mg 5 days on 2 days off.

In assay [2] the test system is ACCx6 xenograft tumor line. Kind of assay: ACCx6 adenoid cystic carcinoma xenograft efficacy study in nude mice. The class given is in vivo. The following applies: 50 mg/kg p.o. qd x28; D28; P<0.001 as compared to 5/10 mg/kg docetaxel monotherapy.
Protocol: The tumors are maintained by engraftment in nude mice. A 1 mm^3 fragment is implanted subcutaneously in the right flank of each test animal The tumors are measured with calipers twice weekly, and daily as the mean volume approached 100-150 mm^3 Seven days after tumor cell implantation, on D1 (day 1) of the study, the animals are sorted into groups of ten mice, with individual tumor sizes of 100-1250 mm^3 Tumor size, in mm^3, is calculated from
where “w” is the width and “1” is the length, in mm, of the tumor. Tumor weight is estimated with the assumption that 1 mg is equivalent to 1 mm^3 of tumor volume. For the efficacy study dovitinib and its vehicle are each administered orally (p.o.), once daily for twenty eight consecutive days (qd x28). […] The dosing volume, 10 mL/kg (0.2 mL20 g mouse), is scaled to the weight of each animal as determined on the day of dosing, except on weekends when the previous BW was carried forward.
The study begins on Day 1 (D1). Efficacy is determined from tumor volume changes up to D28 (day 28). Efficacy is determined on D28.
For the purpose of statistical and graphical analyses, ΔTV, the difference in tumor volume between D1 (the start of dosing) and the endpoint day, was determined for each animal For each treatment group, the response on the endpoint day was calculated by the following relation: […]
The next assay relates to primary ACC xenografts. Kind of assay: Tumor growth inhibition in primary ACC xenograft models. The class given is in vivo, immunodeficient mice. The settings on record: FIGS. 6 and 7. Here is the method:
Once confirmed, established ACC xenograft models were developed until growth characteristic stabilized at which point viable stocks were collected and banked. According to one embodiment, the efficacy of dovitinib was evaluated in inhibiting tumor growth in certain ACC xenografts.

The subject of assay [3] is ACCx5M1 xenograft tumor line. As to the kind of experiment: ACCx5M1 adenoid cystic carcinoma xenograft tumor growth delay study in nude mice. In kind it is in vivo. The source says:
The data set is comprised of the first observation that exceeded the study endpoint volume and the three consecutive observations that immediately preceded the attainment of the endpoint volume. The calculated TTE is usually less than the day on which an animal is euthanized for tumor size.

Setting [4] is: 500 mg 5 days on 2 days off, after 1 cycle of treatment (4 weeks), one patient.

Regarding `CN1CCN(c2ccc3nc(-c4c(N)c5c(F)cccc5[nH]c4=O)[nH]c3c2)CC1` [dovitinib, 4-amino-5-fluoro-3-[6-(4-methylpiperazin-1-yl)-1H-benzimidazol-2-yl]-1H-quinolin-2-one], in assay [1] (setting [4]), the “reduction of total diameter of target lesions” value came to 26% and the “reduction of tumor diameter on the right facial target lesion” value stood at 70%. In assay [1] (after 1 cycle of treatment), the “reducing ACC tumor growth in a human clinical trial” value was “surprisingly effective in reducing ACC tumor growth”. Besides, the “median growth inhibition (tumor volume)” value in assay [2] is listed as “significant median growth inhibition”. The “inhibiting tumor growth in primary ACC xenografts” value with primary ACC xenografts is given as “effective for inhibiting tumor growth; also recorded: surprisingly effective in inhibiting tumor”. Further, the survival extension entry in assay [3] (50 mg/kg monotherapy, Logrank test, P<0.05) is “significant”. The “% TGD (tumor growth delay)” value in assay [3] (50 mg/kg p.o. qd x64 monotherapy, study endpoint D64 or endpoint tumor volume) came out at 49%.
